In ChEMBL document CHEMBL1781901, “Toluidinesulfonamide hypoxia-induced factor 1 inhibitors: alleviating drug-drug interactions through use of PubChem data and comparative molecular field analysis guided synthesis” (J Med Chem, 2011):
Values belong to the molecule of their own block, whether it stands above or below them.

Assays:
Cytochrome P450 2C9 = Cytochrome P450 2C9 (Homo sapiens, UniProt P11712); test: Inhibition of CYP2C9 after 30 mins by luminescence assay; assay type: ADME
[1] = Inhibition of HIF-1 in human deferoxamine treated HCT-116 cells expressing HRE-bla gene pretreated for 30 mins before deferoxamine challenge measured after 24 hrs by fluorometric analysis; assay type: cell-based

Cytochrome P450 2C9, sequence (P11712 whole entry): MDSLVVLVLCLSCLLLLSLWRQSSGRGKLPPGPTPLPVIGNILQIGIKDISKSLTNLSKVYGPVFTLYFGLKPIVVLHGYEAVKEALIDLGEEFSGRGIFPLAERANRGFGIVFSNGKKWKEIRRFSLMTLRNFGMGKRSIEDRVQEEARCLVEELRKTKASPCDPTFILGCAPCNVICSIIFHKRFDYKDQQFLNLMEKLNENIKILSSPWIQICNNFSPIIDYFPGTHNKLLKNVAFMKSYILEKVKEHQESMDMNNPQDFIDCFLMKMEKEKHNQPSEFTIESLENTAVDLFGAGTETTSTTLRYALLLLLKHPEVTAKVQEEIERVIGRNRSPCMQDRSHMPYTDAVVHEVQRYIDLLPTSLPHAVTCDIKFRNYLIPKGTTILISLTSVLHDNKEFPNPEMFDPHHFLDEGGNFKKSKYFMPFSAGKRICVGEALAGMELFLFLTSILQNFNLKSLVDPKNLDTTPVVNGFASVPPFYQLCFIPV

Compound: COC(=O)c1ccc(C)c(NS(=O)(=O)c2ccc(NC(C)=O)cc2)c1
- EC50 (Cytochrome P450 2C9): 0.251 µM
- pIC50 [1]: 4.7

Compound: COC(=O)c1ccc(C)c(NS(=O)(=O)c2ccc(OC)c(OC)c2)c1
- EC50 (Cytochrome P450 2C9): 2.51 µM
- pIC50 [1]: < 5

Compound: COC(=O)c1ccc(OC)c(NS(=O)(=O)c2ccc(OC)cc2)c1
- EC50 (Cytochrome P450 2C9): 39.8 µM
- pIC50 [1]: 5.5

Compound: COC(=O)c1ccc2c(c1)N(S(=O)(=O)c1ccc(C)cc1)CCO2
- EC50 (Cytochrome P450 2C9): 3.98 µM
- pIC50 [1]: 7

Compound: COC(=O)c1ccc(C)c(NS(=O)(=O)c2ccc(C)cc2)c1
- EC50 (Cytochrome P450 2C9): 1.58 µM
- pIC50 [1]: 7.4

More lines, now with the values ahead:

- EC50 (Cytochrome P450 2C9): 3.98 µM
- pIC50 [1]: 7.2
Compound: COC(=O)c1ccc(C)c(NS(=O)(=O)c2ccc(OC)cc2)c1

- EC50 (Cytochrome P450 2C9): 15.8 µM
- pIC50 [1]: 5.8
Compound: COC(=O)c1ccc(C)c(N(C)S(=O)(=O)c2ccc(C)cc2)c1

- EC50 (Cytochrome P450 2C9): 25.1 µM
- pIC50 [1]: 6.2
Compound: COC(=O)c1ccc(C)c(N(C)S(=O)(=O)c2ccc(OC)cc2)c1
